One block for each compound: values may come before it.
Molecular target: T1, Recombinant HCV polymerase (Hepatitis C virus genotype 1b, UniProt P26663)
T1 construct: Recombinant HCV polymerase was tested for its ability to perform primer/template-directed transcription
Assay: biochemical
Conditions: inhibition of polymerase-directed transcription; 30 min at 30° C; 30 nM enzyme; cpm data in triplicate
Method in brief: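 Primer/template-directed RNA synthesis by 2.5 pmol HCV polymerase on poly(rC)300/biotin-dG12 with 1 μM GTP plus α-32P-GTP, in pH 7.2 Tris buffer with 10 mM MgCl2, for 30 min at 30 °C. Products were filter-captured and counted, with 1% DMSO final. IC50 was fitted from triplicate cpm; percent inhibition was reported where IC50 was impractical.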

T1 sequence (P26663 2420-3010): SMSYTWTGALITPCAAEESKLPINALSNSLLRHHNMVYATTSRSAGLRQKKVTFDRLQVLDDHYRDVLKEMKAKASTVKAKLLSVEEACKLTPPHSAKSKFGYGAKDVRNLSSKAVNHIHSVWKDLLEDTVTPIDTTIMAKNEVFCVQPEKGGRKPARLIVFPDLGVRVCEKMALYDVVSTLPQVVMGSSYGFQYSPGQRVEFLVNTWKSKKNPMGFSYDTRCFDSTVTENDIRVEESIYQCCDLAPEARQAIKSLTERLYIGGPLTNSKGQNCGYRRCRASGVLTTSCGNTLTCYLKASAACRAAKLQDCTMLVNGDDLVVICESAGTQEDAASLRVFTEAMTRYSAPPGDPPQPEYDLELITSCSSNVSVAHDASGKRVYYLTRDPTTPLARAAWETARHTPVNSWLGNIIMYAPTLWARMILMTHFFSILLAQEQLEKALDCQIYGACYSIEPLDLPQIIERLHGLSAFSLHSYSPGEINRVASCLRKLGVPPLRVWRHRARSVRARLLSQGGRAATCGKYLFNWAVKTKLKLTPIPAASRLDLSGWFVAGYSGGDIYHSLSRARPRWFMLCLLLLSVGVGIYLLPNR

SMILES: CCc1ccc(=O)n(CCC2(C3CCCC3)CC(O)=C(Cc3nc4nc(C)cc(C)n4n3)C(=O)O2)c1 (centres unmarked) [B(31), 1-(2-{2-Cyclopentyl-5-[(5,7-dimethyl[1,2,4]triazolo[1,5-a]pyrimidin-2-yl)methyl]-4-hydroxy-6-oxo-3,6-dihydro-2H-pyran-2-yl}ethyl)-5-ethylpyridin-2(1H)-one]
IC50: 180 nM

SMILES: COc1cc(OC)c(CCC2(C3CCCC3)CC(=O)C(Sc3nc(N)nc4nc[nH]c34)C(=O)O2)cc1Cl (centres unmarked) [B(21), 3-[(2-Amino-7H-purin-6-yl)thio]-6-[2-(5-chloro-2,4-dimethoxyphenyl)ethyl]-6-cyclopentyldihydro-2H-pyran-2,4(3H)-dione]
IC50: 178 nM

SMILES: CCc1cc(CCC2(C3CCCC3)CC(=O)CC(=O)O2)c(OC)cn1 (centres unmarked) [A(2), 6–Cyclopentyl-6-[2-(2-ethyl-5-methoxypyridin-4-yl)ethyl]dihydro-2H-pyran-2,4(3H)-dione]
IC50: 620 nM

SMILES: Cc1cc(C)n2nc(CC3=C(O)CC(CCc4ccc(C(=O)O)c(F)c4)(C4CCCC4)OC3=O)nc2n1 (centres unmarked) [B(11), 4-(2-{2-Cyclopentyl-5-[(5,7-dimethyl[1,2,4]triazolo[1,5-a]pyrimidin-2-yl)methyl]-4-hydroxy-6-oxo-3,6dihydro-2H-pyran-2-yl}ethyl)-2-fluorobenzoic acid]
IC50: 260 nM

SMILES: Cc1cc(C)n2nc(CC3=C(O)CC(CCc4ccc([C@@H](C)N)cc4)(C4CCCC4)OC3=O)nc2n1 (stereo partly drawn) [A(92), 6-(2-{4-[(1R)-1-Aminoethyl]phenyl}ethyl)-6-cyclopentyl-3-[(5,7-dimethyl[1,2,4]triazolo[1,5-a]pyrimidin-2-yl)methyl]-hydroxy-5,6-dihydro-2H-pyran-2-one]
IC50: 300 nM

Now those with a lower IC50, led by results:

IC50: 170 nM
SMILES: Cc1cc(CCC2(C3CCCC3)CC(O)=C(Cc3nc4nc(C)cc(C)n4n3)C(=O)O2)cc(C)n1 (centres unmarked) [A(18), 6-Cyclopentyl-6-[2-(2,6-dimethylpyridin-4-yl)ethyl]-3[(5,7-dimethyl[1,2,4]triazolo[1,5-a]pyrimidin-2-yl)methyl]-4-hydroxy-5,6dihydro-2H-pyran-2-one]

IC50: 14 nM
SMILES: CCc1cc(CCC2(C3CCCC3)CC(O)=C(Cc3nc4nc(C)cc(C)n4n3)C(=O)O2)c(OC)cc1OC (centres unmarked) [A(24), 6-Cyclopentyl-3-[(5,7-dimethyl[1,2,4]triazolo[1,5-a]pyrimidin-2-yl)methyl]-6-[2-(5-ethyl-2,4-dimethoxyphenyl)ethyl]-4-hydroxy-5,6-dihydro-2H-pyran-2-one]

IC50: 12 nM
SMILES: Cc1cc(C)n2nc(CC3=C(O)CC(CCc4cnc(C(C)(C)C#N)c(Cl)c4)(C4CCCC4)OC3=O)nc2n1 (racemic) [Example B(39), 2-[3-chloro-5-(2-{2-cyclopentyl-5-[(5,7-dimethyl[1,2,4]triazolo[1,5-a]pyrimidin-2-yl)methyl]-4-hydroxy-6-oxo-3,6-dihydro-2H-pyran-2-yl}ethyl)pyridin-2-yl]-2-methylpropanenitrile]

IC50: 6 nM
SMILES: CCc1cc(CCC2(C3CCCC3)CC(O)=C(Cc3nc4nc(C)cc(C)n4n3)C(=O)O2)c(OC)cn1 (single isomer, unassigned) [A(39), 6-Cyclopentyl-3-[(5,7-dimethyl[1,2,4]triazolo[1,5-a]pyrimidin-2-yl)methyl]-6-[2-(2-ethyl-5-methoxypyridin-4-yl)ethyl]-4-hydroxy-5,6-dihydro-2H-pyran-2-one]

IC50: 5 nM
SMILES: CCCOc1cc(O)c(CC)cc1CCC1(C2CCCC2)CC(O)=C(Cc2nc3ncc(C)cn3n2)C(=O)O1 (centres unmarked) [A(47), 6-Cyclopentyl-6-[2-(5-ethyl-4-hydroxy-2-propoxyphenyl)ethyl]-4-hydroxy-3-[(6-methyl[1,2,4]triazolo[1,5-a]pyrimidin-2-yl)methyl]-5,6-dihydro-2H-pyran-2-one]

IC50: 3 nM
SMILES: CCCOc1cc(O)c(CC)cc1CCC1(C2CCCC2)CC(O)=C(Cc2nc3nc(C)cc(C)n3n2)C(=O)O1 (centres unmarked) [A(1), 6Cyclopentyl-3[(5,7-dimethyl[1,2,4]triazolo[1,5-a]pyrimidin-2-yl)methyl]-6-[2-(5-ethyl-4-hydroxy-2-propoxyphenyl)ethyl]-4-hydroxy-5,6dihydro-2H-pyran-2-one]

Reference: US7151105B2, “Inhibitors of Hepatitis C virus RNA-dependent RNA polymerase, and compositions and treatments using the same” (Agouron Pharmaceuticals, Inc., priority 2004, dated 2006)
